row,Compound,melting point [°C]
1,CSc1nc(Cl)c(C#N)c(Cl)n1,107
2,CC(C)(C)c1nnc(S)o1,79 to 80
3,CCc1cc2c(cc1OCc1ccccc1)CCC1C2CCC2(C)C(CCO[Si](c3ccccc3)(c3ccccc3)C(C)(C)C)CCC12 (configuration not stated),48 to 50
4,CCc1cc(OC)cc2nc(-c3ccc(OC)cc3)oc12,85
5,Cc1ccc(NC(=O)Nc2cccc(Oc3ccc4nc(COc5ccc(CC6SC(=O)NC6=O)cc5)n(C)c4c3)c2)cc1 (configuration not stated),173 to 175
6,CCc1ccc(Sc2nn(-c3ccc(OC)cc3)c(=O)c(C#N)c2C)cc1,159 to 160
7,CC1SC(=NO)C(C)(C)NC1=O (configuration not stated),199 to 202
8,CN1C2CCCC1CC(NC(=O)c1cc(Cl)cc3nc(-c4ccccc4)oc13)C2 (configuration not stated),199 to 201
9,O=C1OC(CCI)C(O)=C1O (configuration not stated),150 to 151
10,COc1ccc(C2(C=O)C=CC=CC2)cc1OCCCC1(c2noc3cc(F)ccc23)CCNCC1 (configuration not stated),140 to 141
11,COC1(c2cccc(S(=O)(=O)c3ccc(N(C)C(C)=O)c(Cl)c3)c2)CCOCC1,119 to 121
12,Cc1c(Cl)ncc2ncc(-c3ccccc3)cc12,136
13,CCOC(=O)c1ccc(OCCC2CN(c3ccc(SC)nn3)CCO2)cc1 (configuration not stated),111
14,Cc1nc2c(N)nc3ccccc3c2n1CCCCOCCCc1ccccc1,105 to 106
15,CC(C)C(NC(=O)NCc1ccccn1)C(=O)NC(Cc1ccccc1)C(O)C(Cc1ccccc1)NC(=O)C(NC(=O)NCc1ccccn1)C(C)C (configuration not stated),198 to 199
16,Cc1nn(C)c(C)c1N=C=S,51
17,CON=C(c1ccccc1OCc1ccc(Cl)cc1)n1ccnc1,92.5 to 93.5
18,Cc1cc(Cl)c(N=C2NCCN2)cc1[N+](=O)[O-],198 to 201
19,COc1cc(OC)nc(NC(=O)NS(=O)(=O)c2ccccc2S(N)(=O)=O)n1,192 to 193
20,COC(=O)C1c2ccccc2C2C(=O)NCCN21 (configuration not stated),165 to 167
21,Nc1ncc(-c2ccccc2)nc1Br,148 to 152
22,Cc1ccc(C)c(NC(=O)C(C)c2ccc(N)c(N)c2)c1 (configuration not stated),120 to 121
23,C=C(C(=O)OCC)c1cccc(-c2cc3c(cc2C)C(C)(C)CCC3(C)C)c1,70 to 72
24,Cc1ccc2nc(-c3ccccc3C#N)n(C)c(=O)c2c1,157 to 158
25,N#Cc1c(F)cc(OCc2ccncc2)cc1OC(C(=O)O)c1ccccc1Cl (racemic),135 to 139
26,CCOC(=O)C(C)Oc1ccc(C)cc1 (configuration not stated),78 to 82

row,Compound,melting point [°C]
1,COc1ccc(-c2cnc3cc(OC)c(OC)cc3c2)cn1,170 to 172
2,COC(=O)C(CC(C)C)NCC(=O)Nc1cccc2c1C(=O)c1c(NC(=O)CNC(CC(C)C)C(=O)OC)cccc1C2=O (configuration not stated),238 to 239
3,CCC(CCc1cc(-c2ccccc2)nc2ccccc12)C(=O)N(CC)CC (configuration not stated),81
4,CN(C)CSc1ccc(-n2cnnn2)cc1,56 to 57.5
5,CC(C)(C)C1NC(C(=O)O)CS1 (mixture of isomers),184
6,O=C1CC(c2cccc(-n3cncn3)c2)=Nc2ccc(-c3ccc(F)cc3)cc2N1,241 to 245
7,CC(Cl)(Cl)C(NC(=O)c1cccc(Cl)c1)NC(=NC#N)Nc1cccnc1 (configuration not stated),142 to 143
8,CSC(=NC(=O)c1ccccc1)Nc1ccccc1,78 to 94
9,COc1cc(OC)nc(-c2ccc(C)cc2)n1,61 to 62
10,COc1ccc2c(c1)C(=O)C(=Cc1cccc([N+](=O)[O-])c1)CC2,175 to 176
11,OCCN1CC[C@@H]2[C@H]1CCC[C@@]2(O)c1ccc(Cl)c(Cl)c1 (racemic),161
12,CCN(CC)CCNc1nc2cccnc2n(-c2ccc(Cl)cc2)c1=O,149 to 150
13,Cc1cccc(N2CCN(c3ccc(Br)nn3)CC2)c1,146
14,CS(=O)(=O)c1ccc(C2=C(c3ccc(F)cc3)CC3(CCCC3)C2)cc1,142 to 143
15,CCOC(=O)c1c(C(F)(F)F)nc(C(F)(F)Cl)c(C(=O)OC)c1N(CC)CC,31.5 to 33
16,CC(C)n1nc(-c2sc(NC(=O)c3ccc(CN4CCOCC4)cc3)nc2-c2ccccc2)ccc1=O,222 to 224
17,COc1ccc(F)c(C=C2c3ccccc3CCc3ccccc32)c1,111
18,O=C(Cc1c[nH]c2ccccc12)Nc1ccc(-n2nc(C3CC3)cc2C2CC2)cc1,158 to 164
19,CCSc1c(Cl)c(C(=O)O)c(C(O)=NC)c(Cl)c1SCC,154 to 155
20,CC(=NNc1ccc(C2=NNC(=O)CC2C)cc1)c1cc(O)ccc1O (configuration not stated),279 to 284
21,Cc1cc(-n2cncn2)cc(I)c1N,151 to 154
22,N#Cc1cc(-c2ccoc2)c2ccc(COc3cc(F)cc(-c4ccccc4)c3)cc2n1,150 to 152
23,CCOc1cc(-c2cc(C(F)(F)F)n3ncc(-c4ccncc4)c3n2)ccc1C(F)(F)F,251
24,O=C(Nc1ccc(C2(O)CCCN(C(=O)OCc3ccccc3)C2)c(F)c1)OCc1ccccc1 (configuration not stated),137 to 139
25,Cc1cc(C(C)(C)C)cc(C)c1S(=O)(=O)C[N+](=O)[O-],90 to 92
26,CCCN(CCC(N)=O)CCC(N)=O,101 to 102

row,Compound,melting point [°C]
1,OCCON=Cc1ccccn1,45
2,CCOC(=O)CC1(c2ccccc2OCC)C(=O)Nc2ccc(Cl)cc21 (configuration not stated),181
3,CC(=O)Nc1ccc2c(c1)S(=O)(=O)N(CCCCN1CCN(c3ncccn3)CC1)C2=O,162
4,COc1cc2c(cc1-c1nc3cc(-c4ccccc4)ccc3o1)oc1ccccc12,155 to 160
5,COc1c(N2CC[C@@H](C3(NC(=O)OC(C)(C)C)CCC3)C2)ccc2c(=O)c(C(=O)O)cn([C@@H]3C[C@@H]3F)c12,174
6,CCCCCCCCCCCCCCCCCC(=O)N[C@@H](C)C(=O)O,102
7,CC(=O)NCC1CN(c2ccc(N3CCC(=CC#N)C(F)C3)c(F)c2)C(=O)O1 (configuration not stated),138 to 140
8,COc1ccc2[nH]c(=O)c3cccn3c2n1,250
9,Oc1cc(Nc2nnc(Cc3ccncc3)c3ccccc23)ccc1Cl,245 to 246
10,Cc1ccc(F)cc1C=S,45 to 47
11,CS(=O)CCNC(=O)c1cccc(-c2ccc3c(c2)C(Oc2ccc(Cl)cc2Cl)CC3)c1 (configuration not stated),149 to 150
12,O=C(Nc1ccccc1)OCc1ccccc1,92 to 96
13,Nc1cc(OCc2ccccc2)c(OCc2ccccc2)cn1,111 to 113
14,CCOC(=O)c1nc2n(n1)-c1sc(C)c(C)c1C(c1ccccc1)=NC2,173 to 174
15,CC(=O)Oc1ccc(C(=O)Cl)cc1,167
16,O=C(O)[C@@H]1CN(C(=O)OCc2ccccc2)CCN1C(=O)N1c2ccccc2CCc2ccccc21,185
17,COC(=O)c1cc(-c2ccc(C)cc2)n(Cc2ccc(Cl)cc2Cl)n1,105
18,COc1ccc(C(C)OC)c(OC)c1C(O)c1cn(C(c2ccccc2)(c2ccccc2)c2ccccc2)cn1 (configuration not stated),96 to 99
19,NC1CCN(c2ncc3ncnc(Nc4ccc(OCc5ccccc5)cc4)c3n2)CC1,150
20,COc1ccc2c(c1)C1=C(SCC3(CCN(CC(O)COc4ccc(Cl)cc4)CC3)O1)C(=O)C2=O (configuration not stated),109 to 110
21,Oc1ccc(-c2cc3ncccc3cn2)cc1,219 to 221
22,CN(C)C=NS(=O)(=O)c1ccc(F)c(F)c1,109 to 112
23,Cc1cc(Cl)c(C(=O)c2cc(C)c(C)cc2Cl)cc1C,148 to 149
24,O=C1OC(=O)[C@@H]2CCC[C@H]12,63 to 68
25,O=C(O)Cn1cc(Cc2nc3c(F)c(F)cc(F)c3s2)c2ccc(F)cc21,200 to 203
26,O=C(c1ccc(F)c(F)c1Nc1ccc(I)cc1F)N1CC(O)CO1 (configuration not stated),122 to 124

row,Compound,melting point [°C]
1,CCCN(CCN1CCN(C(=O)c2n[nH]c3ccccc23)CC1)C1CCc2c(O)cccc2C1 (configuration not stated),167 to 170
2,CCC(O)(CC)Cc1ccc(N)cc1,85 to 86
3,CNc1cc(N2CCN(C(=O)N3CCN(S(=O)(=O)c4ccc(C(F)(F)F)cc4)CC3)CC2)ncn1,230 to 231
4,CCOC(=O)c1ncn(-c2cc(C(=O)OC)c([N+](=O)[O-])cc2C(F)(F)F)n1,190 to 192
5,COC(=O)C1=C(C)Nc2[nH]nc(-c3ccccc3)c2C1c1cccc([N+](=O)[O-])c1 (configuration not stated),240 to 241
6,O=C1c2cc(O)ccc2OCC1Cc1nccs1 (configuration not stated),150 to 152
7,O=C(O)Cc1ccc(-n2cnc3cnc4ccccc4c32)cc1,236 to 240
8,CN1CCN(c2ccc(S(=O)(=O)Oc3ccc(Cl)cc3)cc2)C1=O,165 to 168
9,CCCc1c(O)cccc1Oc1ccccc1C(=O)OC,80
10,OC1(c2nccc3ccccc23)CCNCC1,138 to 140
11,COC(=O)CCC(=O)c1cc(NC(C)=O)ccc1O,145 to 147
12,OCCNc1c2c(nc3cn[nH]c13)CCCC2,205 to 210
13,O=c1cc(CO)oc2cc(S)ccc12,139 to 140
14,CC1=C(c2ccncc2)SC(OC(=O)c2cccc(Cl)c2)C(=O)N1 (configuration not stated),142 to 143
15,Clc1ccc(-n2nc3cc(Cl)ccc3c2Cl)c(Cl)c1,120
16,O=S1(=O)CCN(CCCN2CCc3sc(Nc4ncc(F)cn4)nc3-c3c[nH]nc32)CC1,272 to 273
17,CCCCc1nc(Cl)c(CO)n1Cc1ccc(-c2ccccc2-c2nnnn2-c2ccc([N+](=O)[O-])cc2)cc1,182 to 186
18,Cc1oc(-c2ccccc2)nc1COc1ccc(CCc2nnn[nH]2)cc1,203 to 204
19,OCc1cc(F)c(Cl)nc1Cl,65 to 67
20,C[C@@H](O)CNC(=O)N1CC(c2ccc(C(F)(F)F)cc2)C1,107 to 108
21,O=C(O)C1=Cc2cc(Br)cc(Br)c2OC1C(F)(F)F (configuration not stated),225 to 226
22,COc1cc(OC)nc(NC(=O)OC(C)C)n1,51 to 54
23,COc1ccc2cnoc2c1Cl,115 to 118
24,Cc1ccc(N(C)N=C(N)C(N)=O)cc1OCC(F)(F)C(F)(F)F,129 to 130

# — a melting point compilation (Tetko et al.; mined from patent text by program, amines drawn as free bases though some values may be those of a salt)
